{
  "source": "ChEMBL document CHEMBL6153094",
  "about": "“Rationally designed highly amphipathic antimicrobial peptides demonstrating superior bacterial selectivity relative to the corresponding α-helix peptide” (Eur J Med Chem, 2025)",
  "key": {"DNA": {"system": "DNA", "test": "Binding affinity to Pseudomonas aeruginosa ATCC 27853 DNA at 8 times of MIC measured after 30 mins by agarose gel electrophoresis", "type": "nucleic-acid assay"}, "Pseudomonas aeruginosa [1]": {"system": "Pseudomonas aeruginosa", "test": "Induction of morphological changes in Pseudomonas aeruginosa ATCC 27853 assessed as membrane disruption at 2 times of MIC incubated for 30 to 120 mins by SEM analysis", "type": "functional, organism-based", "details": "time 30-120 min"}, "Staphylococcus aureus [2]": {"system": "Staphylococcus aureus", "test": "Antibacterial activity against Staphylococcus aureus ATCC 25923 incubated for 18 hrs in presence of MgCl2 by Mueller-Hinton broth based assay", "type": "functional, organism-based"}, "Klebsiella pneumoniae [3]": {"system": "Klebsiella pneumoniae", "test": "Antibacterial activity against Klebsiella pneumoniae ATCC 700603 infected in male Balb/c mouse model of pneumonia assessed as decrease in decrease in IL-1beta level in lung at 2.5 to 10 mg/kg, ip administered at 4 and 12 hrs post-infected and measured after 24 hrs by ELISA", "type": "functional, organism-based", "details": "dose 2.5-10 mg/kg, time 20.0 hrs"}, "Staphylococcus aureus [4]": {"system": "Staphylococcus aureus", "test": "Induction of morphological changes in Staphylococcus aureus ATCC 25923 assessed as membrane disruption at 2 times of MIC incubated for 30 to 120 mins by SEM analysis", "type": "functional, organism-based", "details": "time 30-120 min"}, "Staphylococcus aureus [5]": {"system": "Staphylococcus aureus", "test": "Antibacterial activity against methicillin-resistant Staphylococcus aureus ATCC 33591 infected in male Balb/c mouse model of full thickness skin wound assessed as reduction in bacterial load in skin at 1 mg/ml pre-infected with bacteria for 1 hrs followed by compound administration at 1,12 and 36 hrs post infection and measured 60 hrs post infection by agar plate method", "type": "functional, organism-based", "details": "time 59.0 hrs"}, "Staphylococcus aureus [6]": {"system": "Staphylococcus aureus", "test": "Resistance fold, ratio of MIC for Staphylococcus aureus ATCC 25923 measured after 20 passages to MIC for Staphylococcus aureus ATCC 25923 measured immediately", "type": "functional"}, "Staphylococcus aureus [7]": {"system": "Staphylococcus aureus", "test": "Antibacterial activity against Staphylococcus aureus ATCC 25923 assessed as inhibition of bacterial growth at 2 times of MIC incubated for 18 hrs in presence of 2000 microg/ml of chymotrypsin by absorbance based assay", "type": "functional, organism-based"}, "Staphylococcus aureus [8]": {"system": "Staphylococcus aureus", "test": "Antibacterial activity against methicillin-resistant Staphylococcus aureus ATCC 33591 infected in male Balb/c mouse model of full thickness skin wound assessed as reduction in bacteria in skin wound at 1 mg/ml pre-infected with bacteria for 1 hrs followed by compound administration at 1,12 and 36 hrs post infection and measured after 10 days by photographic analysis", "type": "functional, organism-based", "details": "time 10.0 day"}, "Pseudomonas aeruginosa [9]": {"system": "Pseudomonas aeruginosa", "test": "Antimicrobial activity against Pseudomonas aeruginosa ATCC 27853 assessed as inhibition of visible bacterial growth incubated for 18 hrs by broth microdilution method", "type": "functional"}, "Pseudomonas aeruginosa [10]": {"system": "Pseudomonas aeruginosa", "test": "Resistance fold, ratio of MIC for Pseudomonas aeruginosa ATCC 27853 measured after 20 passages to MIC for Pseudomonas aeruginosa ATCC 27853 measured immediately", "type": "functional"}, "Staphylococcus aureus [11]": {"system": "Staphylococcus aureus", "test": "Antibacterial activity against Staphylococcus aureus ATCC 25923 assessed as fold change in MIC incubated for 18 hrs in presence of KCl by Mueller-Hinton broth based assay", "type": "functional"}, "Staphylococcus aureus [12]": {"system": "Staphylococcus aureus", "test": "Antimicrobial activity against Staphylococcus aureus ATCC 25923 assessed as inhibition of visible bacterial growth incubated for 18 hrs by broth-dilution method", "type": "functional"}, "[13]": {"test": "Toxicity in male Balb/c mouse assessed as animal death at 127 mg/kg, ip measured within 2 days", "type": "organism-based", "details": "in vivo, 48 h, time < 2 day"}, "Pseudomonas aeruginosa [14]": {"system": "Pseudomonas aeruginosa", "test": "Antibiofilm activity in Pseudomonas aeruginosa ATCC 27853 assessed as inhibition of biofilm formation at 1 times of MIC incubated for 24 hrs by crystal violet staining based analysis relative to control", "type": "functional"}, "Staphylococcus aureus [15]": {"system": "Staphylococcus aureus", "test": "Antimicrobial activity against gentamicin-resistant Staphylococcus aureus ATCC 25923 assessed as inhibition of visible bacterial growth incubated for 18 hrs by broth-dilution method", "type": "functional"}, "Staphylococcus aureus [16]": {"system": "Staphylococcus aureus", "test": "Antibacterial activity against Staphylococcus aureus ATCC 25923 assessed as fold change in MIC incubated for 18 hrs in presence of 5% serum by broth microdilution method", "type": "functional"}, "Pseudomonas aeruginosa [17]": {"system": "Pseudomonas aeruginosa", "test": "Bactericidal activity against Pseudomonas aeruginosa ATCC 27853 assessed as bacterial eradication at 1 times of MIC measured after 60 mins by time-kill kinetics assay", "type": "functional, organism-based"}, "Pseudomonas aeruginosa [18]": {"system": "Pseudomonas aeruginosa", "test": "Antibiofilm activity in Pseudomonas aeruginosa ATCC 27853 assessed as inhibition of biofilm formation at 1/2 times of MIC incubated for 24 hrs by crystal violet staining based analysis", "type": "functional, organism-based"}, "Staphylococcus aureus [19]": {"system": "Staphylococcus aureus", "test": "Antibiofilm activity in Staphylococcus aureus ATCC 25923 assessed as inhibition of biofilm formation at 1/2 times of MIC incubated for 24 hrs by crystal violet staining based analysis relative to control", "type": "functional"}, "Enterococcus faecalis": {"system": "Enterococcus faecalis", "test": "Antimicrobial activity against Enterococcus faecalis ATCC 29212 assessed as inhibition of visible bacterial growth incubated for 18 hrs by broth-dilution method", "type": "functional"}, "Staphylococcus aureus [20]": {"system": "Staphylococcus aureus", "test": "Antibacterial activity against methicillin-resistant Staphylococcus aureus ATCC 33591 infected in male Balb/c mouse model of full thickness skin wound assessed as decrease in cell necrosis in skin at 1 mg/ml pre-infected with bacteria for 1 hrs followed by compound administration at 1,12 and 36 hrs post infection and measured after 10 days by H and E staining based analysis", "type": "functional, organism-based", "details": "time 10.0 day"}, "Staphylococcus aureus [21]": {"system": "Staphylococcus aureus", "test": "Induction of morphological changes in Staphylococcus aureus ATCC 25923 assessed as cellular fragmentation at 2 times of MIC incubated for 30 to 120 mins by SEM analysis", "type": "functional, organism-based", "details": "time 30-120 min"}, "[22]": {"system": "Staphylococcus epidermidis", "test": "Antimicrobial activity against Staphylococcus epidermidis ATCC 12228 assessed as inhibition of visible bacterial growth incubated for 18 hrs by broth-dilution method", "type": "functional"}, "Klebsiella pneumoniae [23]": {"system": "Klebsiella pneumoniae", "test": "Antimicrobial activity against Klebsiella pneumoniae ATCC 700603 assessed as inhibition of visible bacterial growth incubated for 18 hrs by broth microdilution method", "type": "functional"}, "Staphylococcus aureus [24]": {"system": "Staphylococcus aureus", "test": "Antimicrobial activity against methicillin-drug resistant Staphylococcus aureus clinical isolate 2 assessed as concentration required to eliminate 90% bacteria incubated for 18 hrs by broth-microdilution method", "type": "functional"}, "Staphylococcus aureus [25]": {"system": "Staphylococcus aureus", "test": "Antibacterial activity against methicillin-resistant Staphylococcus aureus ATCC 33591 infected in male Balb/c mouse model of full thickness skin wound assessed as reduction in bacteria in skin wound at 1 mg/ml pre-infected with bacteria for 1 hrs followed by compound administration at 1,24,48 and 72 hrs post infection and measured after 10 days by photographic analysis", "type": "functional, organism-based", "details": "time 10.0 day"}, "[26]": {"test": "Toxicity in male Balb/c mouse assessed as mortality at 100.8 mg/kg, ip measured after 7 days relative to control", "type": "organism-based", "details": "in vivo, time 7 day"}, "[27]": {"test": "Toxicity in male Balb/c mouse assessed as effect on survival at 63.5 mg/kg, ip measured after 7 days", "type": "organism-based", "details": "in vivo, 168 h, time 7 day"}, "Pseudomonas aeruginosa [28]": {"system": "Pseudomonas aeruginosa", "test": "Antibacterial activity against Pseudomonas aeruginosa ATCC 27853 incubated for 18 hrs in presence of FeCl3 by Mueller-Hinton broth based assay", "type": "functional, organism-based"}, "Pseudomonas aeruginosa [29]": {"system": "Pseudomonas aeruginosa", "test": "Antibacterial activity against Pseudomonas aeruginosa ATCC 27853 assessed as fold change in MIC incubated for 18 hrs in presence of 2.5% serum by broth microdilution method", "type": "functional"}},
  "note": "The source made the active and inactive calls. The calls are words filed in the database; no cut-off is given here.",
  "data": [
    {"substance": "H-RRWFRRWRRWFR-NH2", "values": [
      {"measurement": "Activity", "setting": "DNA", "result": "Active"},
      {"measurement": "Activity", "setting": "Pseudomonas aeruginosa [1]", "result": "Active"},
      {"measurement": "Activity", "setting": "Staphylococcus aureus [2]", "result": "Active"},
      {"measurement": "Activity", "setting": "Klebsiella pneumoniae [3]", "result": "Active"},
      {"measurement": "Activity", "setting": "Staphylococcus aureus [4]", "result": "Active"},
      {"measurement": "Activity", "setting": "Staphylococcus aureus [5]", "result": "Active"},
      {"measurement": "fold change (FC)", "setting": "Staphylococcus aureus [6]", "result": "<=2"},
      {"measurement": "Activity", "setting": "Staphylococcus aureus [7]", "result": "Not active; Entire Loss Of Activity Observed"},
      {"measurement": "Activity", "setting": "Staphylococcus aureus [8]", "result": "Active; Obvious Facilitation Of Wound Healing Not Observed"},
      {"measurement": "MIC", "setting": "Pseudomonas aeruginosa [9]", "result": 2, "unit": "µM"},
      {"measurement": "fold change (FC)", "setting": "Pseudomonas aeruginosa [10]", "result": "<=2"},
      {"measurement": "fold change (FC)", "setting": "Staphylococcus aureus [11]", "result": 2},
      {"measurement": "MIC", "setting": "Staphylococcus aureus [12]", "result": 2, "unit": "µM"},
      {"measurement": "Activity", "setting": "[13]", "result": "Toxic"},
      {"measurement": "inhibition (INH)", "setting": "Pseudomonas aeruginosa [14]", "result": ">90", "unit": "%"},
      {"measurement": "MIC", "setting": "Staphylococcus aureus [15]", "result": 4, "unit": "µM"},
      {"measurement": "fold change (FC)", "setting": "Staphylococcus aureus [16]", "result": 128},
      {"measurement": "Activity", "setting": "Pseudomonas aeruginosa [17]", "result": "Active"},
      {"measurement": "Activity", "setting": "Pseudomonas aeruginosa [18]", "result": "inactive"},
      {"measurement": "inhibition (INH)", "setting": "Staphylococcus aureus [19]", "result": 35, "unit": "%"},
      {"measurement": "MIC", "setting": "Enterococcus faecalis", "result": 8, "unit": "µM"},
      {"measurement": "Activity", "setting": "Staphylococcus aureus [20]", "result": "Active"},
      {"measurement": "Activity", "setting": "Staphylococcus aureus [21]", "result": "Active"},
      {"measurement": "MIC", "setting": "[22]", "result": 1, "unit": "µM"},
      {"measurement": "MIC", "setting": "Klebsiella pneumoniae [23]", "result": 4, "unit": "µM"},
      {"measurement": "EC90", "setting": "Staphylococcus aureus [24]", "result": 2860, "unit": "nM"},
      {"measurement": "Activity", "setting": "Staphylococcus aureus [25]", "result": "Active; Obvious Facilitation Of Wound Healing Not Observed"},
      {"measurement": "mortality at 168 h", "setting": "[26]", "result": 75, "unit": "%"},
      {"measurement": "Activity", "setting": "[27]", "result": "Non-toxic"},
      {"measurement": "Activity", "setting": "Pseudomonas aeruginosa [28]", "result": "Active"},
      {"measurement": "fold change (FC)", "setting": "Pseudomonas aeruginosa [29]", "result": 32}
    ]}
  ]
}
